System: Dog Coronary Artery
Assay: Dog coronary artery test: relaxation of KCl-contracted coronary artery rings
Assay type: cell-based
Details: coronary artery rings contracted with 50 mM KCl, 37° C., IC50 = 50% relaxation, mean values, probit analysis; for IC50: Canis lupus familiaris
Protocol: Mongrel dogs of either sex and weighing 15 to 30 kg were anesthetized with pentobarbital (35 mg/kg). Each heart was quickly removed through a right thoracotomy and placed in Kreb's bicarbonate solution of the following composition (mM/L): NaCl, 118.2; KCl, 4.6; CaCl2.2H2 O, 1.6; KH2 PO4, 1.2; MgSO4.7H2 O, 1.2; NaHCO3, 24.8; and dextrose, 10.0. The medium was kept at room temperature and saturated with 95% O2 /5% CO2. The left anterior descending and circumflex coronary arteries were isolated and used either immediately or stored overnight at 5° C. Arteries were cut into rings approximately 2 to 3 mm wide, placed on 2 L-shaped hooks and mounted in a 10 ml organ bath by attaching one hook to a stationary glass rod and the other hook to a force-displacement transducer. Tissue medium consisted of Kreb's bicarbonate solution maintained at 37° C. and bubbled with 95 % O2 /5% CO2. Artery rings were equilibrated for 1-2 hours under a resting tension of 3 g. Tissue medium was then changed to one containing 50 mM KCl and 72.8 mM NaCl but otherwise identical to Kreb's bicarbonate solution. After tissues achieved a steady state contractile tension (1-2 hours) a given test agent was added to each bath and concentration-response curves determined. […] At the end of the concentration-response curve, tissue medium was changed to one identical to the 50 mM KCl buffer but containing 2.5 mM EGTA and no CaCl2.2H2 O to obtain complete relaxation of the tissue. Percent relaxation was then determined for each concentration and values producing 50% relaxation (IC50) were estimated using a probit analysis.

SMILES | IC50 | -log IC50
COC(=O)C1=C(C)NC(C)=C(C(=O)OCCN(C)Cc2ccccc2)C1c1csc2ccncc12 (centres unmarked) [Example 31, 1,4-Dihydro-2,6-dimethyl-4-thieno[3,2-c]pyridin-3-yl-3,5-pyridine dicarboxylic acid, 3-methyl 5-(2-[methyl(phenylmethyl)amino]ethyl)ester] | 126 nM | –
COC(=O)C1=C(C)NC(C)=C(C(=O)OC)C1c1csc2ccncc12 [Example 9, 1,4-Dihydro-2,6-dimethyl-4-thieno[3,2-c]pyridin-3-yl-3,5-pyridinedicarboxylic acid, dimethyl ester] | 100 nM | –
CCOC(=O)C1=C(C)NC(C)=C(C(=O)OCC)C1c1csc2cc(N)ccc12 [Example 29, 4-(6-Aminobenzo[b]thien-3-yl)-1,4-dihydro-2,6-dimethyl-3,5-pyridinecarboxylic acid, diethyl ester] | 1350 nM | –
CCOC(=O)C1=C(C)NC(C)=C(C(=O)OCC)C1c1c(C)sc2ccncc12 [Example 6, 1,4-Dihydro-2,6-dimethyl-4-(2-methylthieno[3,2-c]pyridin-3-yl)-3,5-pyridinedicarboxylic acid, diethyl ester] | 398 nM | –
CCCOC(=O)C1=C(C)NC(C)=C(C(=O)OCCC)C1c1csc2ccncc12 [Example 10, 1,4-Dihydro-2,6-dimethyl-4-thieno[3,2-c]pyridin-3-yl-3,5-pyridinedicarboxylic acid, dipropyl ester] | 251 nM | –
CCOC(=O)C1=C(C)NC(C)=C(C(=O)OCC)C1c1csc2c([N+](=O)[O-])cccc12 [Example 25, 1,4-Dihydro-2,6-dimethyl-4-(7-nitrobenzo[b]thien-3-yl)-3,5-pyridinedicarboxylic acid, diethyl ester] | 1700 nM | –
CCOC(=O)C1=C(C)NC(C)=C(C(=O)OCC)C1c1csc2cc([N+](=O)[O-])ccc12 [Example 27, 1,4-Dihydro-2,6-dimethyl-4-(6-nitrobenzo[b]thien-3-yl)-3,5-pyridinedicarboxylic acid, diethyl ester] | 204 nM | –
COCCOC(=O)C1=C(C)NC(C)=C(C(=O)OC)C1c1csc2ccncc12 (centres unmarked) [Example 21, 1,4-Dihydro-2,6-dimethyl-4-thieno[3,2-c]pyridine-3-yl-3,5-pyridinedicarboxylic acid, 3-methyl 5-(2-methoxyethyl)ester] | 61.7 nM | –
CC1=C(C(=O)OCCN(C)Cc2ccccc2)C(c2csc3ccccc23)C(C(=O)OCCN(C)Cc2ccccc2)=C(C)N1 [Example 32] | 21400 nM | –
CCOC(=O)C1=C(C)NC(C)=C(C(=O)OCC)C1c1csc2cnccc12 [Example 12, 1,4-Dihydro-2,6-dimethyl-4-thieno[2,3-c]pyridin-3-yl-3,5-pyridinedicarboxylic acid, diethyl ester] | 40.7 nM | –
CCOC(=O)C1=C(C)NC(C)=C(C(=O)OC)C1c1csc2ccncc12 (centres unmarked) [Example 33, 1,4-Dihydro-2,6-dimethyl-4-thieno[3,2-c]pyridin-3-yl-3,5-pyridinedicarboxylic acid, ethyl methyl ester] | 30.2 nM | –
CCOC(=O)C1=C(C)NC(C)=C(C(=O)OCC)C1c1csc2cccc([N+](=O)[O-])c12 [Example 28, 1,4-Dihydro-2,6-dimethyl-4-(4-nitrobenzo[b]thien-3-yl)-3,5-pyridinecarboxylic acid, diethyl ester] | 155 nM | –
CCOC(=O)C1=C(C)NC(C)=C(C(=O)OCC)C1c1csc2ncccc12 [Example 13, 1,4-Dihydro-2,6-dimethyl-4-thieno[2,3-b]pyridin-3-yl-3,5-pyridinedicarboxylic acid, diethyl ester] | 871 nM | –
CCOC(=O)C1=C(C)NC(C)=C(C(=O)OCCN(C)Cc2ccccc2)C1c1csc2ccccc12 (centres unmarked) [Example 18, 4-Benzo[b]thien-3-yl-1,4-dihydro-2,6-dimethyl-3,5-pyridinedicarboxylic acid, 3-ethyl 5-(2-[methyl(phenylmethyl)amino]ethyl)ester] | 3470 nM | –
CCOC(=O)C1=C(C)NC(C)=C(C(=O)OCC)C1c1csc2ccc(Br)cc12 [Example 22, 4-(5-Bromobenzo[b]thien-3-yl)-1,4-dihydro-2,6-dimethyl-3,5-pyridinedicarboxlic acid, diethyl ester] | 39800 nM | –
CCOC(=O)C1=C(C)NC(C)=C(C(=O)OCC)C1c1csc2ccc(Cl)cc12 [Example 4, 4-(5-Chlorobenzo[b]thien-3-yl)-1,4-dihydro-2,6-dimethyl-3,5-pyridinedicarboxylic acid, diethyl ester] | 3160 nM | –
CCOC(=O)C1=C(C)NC(C)=C(C(=O)OCC)C1c1csc2c(C)nccc12 [Example 14, 1,4-Dihydro-2,6-dimethyl-4-(7-methylthieno[2,3-c]pyridin-3-yl)-3,5-pyridinedicarboxylic acid, diethyl ester] | 3160 nM | –
CCOC(=O)C1=C(C)NC(C)=C(C(=O)OCC)C1c1c(SC)sc2ccccc12 [Example 15, 1,4-Dihydro-2,6-dimethyl-4-[2-(methylthio)benzo[b]thien-3-yl]-3,5-pyridinedicarboxylic acid, diethyl ester] | 2750 nM | –
CCOC(=O)C1=C(C)NC(C)=C(C(=O)OCC)C1c1cc2ccccc2s1 [Example 1, 4-Benzo[b]thien-2-yl-1,4-dihydro-2,6-dimethyl-3,5-pyridinedicarboxylic acid, diethyl ester] | 110000 nM | –

Now from value to compound:

IC50 | -log IC50 | SMILES
81.3 nM | – | CCC(C)OC(=O)C1=C(C)NC(C)=C(C(=O)OC)[C@H]1c1csc2ccncc12 (stereo partly drawn) [Example 42, (R)-1,4-Dihydro-2,6-dimethyl-4-thieno[3,2-c]pyridin-3-yl-3,5-pyridinedicarboxylic acid, methyl 1-methylpropyl ester]
166 nM | – | COCCOC(=O)C1=C(C)NC(C)=C(C(=O)OC(C)C)C1c1csc2ccncc12 (centres unmarked) [Example 37, 1,4-Dihydro-2,6-dimethyl-4-thieno[3,2-c]pyridin-3-yl-3,5-pyridinedicarboxylic acid, 2-methoxyethyl 1-methylethyl ester]
– | 5.7 | CCC(C)OC(=O)C1=C(C)NC(C)=C(C(=O)OC)[C@@H]1c1csc2ccccc12 (stereo partly drawn) [Example 36, (S)-4-benzo[b]thien-3-yl-1,4-dihydro-2,6-dimethyl-3,5-pyridinedicarboxylicacid, methyl 1-methylpropyl ester]
32.4 nM | – | COC(=O)C1=C(C)NC(C)=C(C(=O)OC(C)C)C1c1csc2cnccc12 (centres unmarked) [Example 41, 1,4-Dihydro-2,6-dimethyl-4-thieno[2,3-c]pyridin-3-yl-3,5-pyridinedicarboxylic acid, monomethyl mono(1-methylethyl)ester]
83.2 nM | – | COC(=O)C1=C(C)NC(C)=C(C(=O)OCC2CC2)C1c1csc2cccnc12 (centres unmarked) [Example 46, 1,4-Dihydro-2,6-dimethyl-4-thieno[3,2-b]pyridin-3-yl-3,5-pyridinedicarboxylic acid, cyclopropylmethyl methyl ester]
891 nM | – | COCCOC(=O)C1=C(C)NC(C)=C(C(=O)OC(C)C)C1c1csc2ccccc12 (centres unmarked) [Example 39, 4-Benzo[b]thien-3-yl-1,4-dihydro-2,6-dimethyl-3,5-pyridinedicarboxylic acid, 2-methoxyethyl 1-methylethyl ester]
49 nM | – | COC(=O)C1=C(C)NC(C)=C(C(=O)OC(C)c2ccccc2)[C@@H]1c1csc2ccncc12 (stereo partly drawn) [Example 47, (R)-1,4-Dihydro-2,6-dimethyl-4-thieno[3,2-c]pyridin-3-yl-3,5-pyridinedicarboxylic acid, methyl 1-phenylethyl ester]
251 nM | – | COC(=O)C1=C(C)NC(C)=C(C(=O)OC(C)C)C1c1csc2ccccc12 (centres unmarked) [Example 38, 4-Benzo[b]thien-3-yl-1,4-dihydro-2,6-dimethyl-3,5-pyridinedicarboxylic acid, methyl 1-methylethyl ester]
151 nM | – | CCOC(=O)C1=C(C)NC(C)=C(C(=O)OCC)C1c1cccc2sccc12 [Example 55, 4-(Benzo[b]thien-4-yl)-1,4-dihydro-2,6-dimethyl-3,5-pyridinedicarboxylic a cid, diethyl ester]
7.59 nM | – | COC(=O)C1=C(C)NC(C)=C(C(=O)OCC2CC2)C1c1csc2ccncc12 (centres unmarked) [Example 51, 1,4-Dihydro-2,6-dimethyl-4-thieno[3,2-c]pyridin-3-yl-3,5-pyridinedicarboxylic acid, cyclopropylmethyl methyl ester]
251 nM | – | COC(=O)C1=C(C)NC(C)=C(C(=O)OCCC#N)C1c1csc2ccccc12 (centres unmarked) [Example 35, 4-Benzo[b]thien-3-yl-1,4-dihydro-2,6-dimethyl-3,5-pyridinecarboxylic acid, 2-cyanoethyl methyl ester]
70.8 nM | – | COC(=O)C1=C(C)NC(C)=C(C(=O)OCC2CC2)C1c1csc2cnccc12 (centres unmarked) [Example 44, 1,4-Dihydro-2,6-dimethyl-4-thieno[2,3-c]pyridin-3-yl-3,5-pyridinedicarboxylic acid, cyclopropylmethyl methyl ester]
40.7 nM | – | C=CCOC(=O)C1=C(C)NC(C)=C(C(=O)OC)C1c1csc2ccncc12 (centres unmarked) [Example 50, 1,4-Dihydro-2,6-dimethyl-4-thieno[3,2-c]pyridin-3-yl-3,5-pyridinecarboxylic acid, methyl 2-propenyl ester]
